Data on eight compounds can be found in US20150212064A1, “DEGRANULATION INDICATOR AND METHODS OF USE THEREOF” (priority 2011, published 2015).

The subject of one data set is PC12 chromaffin cells. The conditions noted are these: cited from earlier work.
The test system of data set [1] is NK cell cortical actin filaments. Conditions: cited from earlier work.
The test system of data set [2] is NK92 cells expressing pHlourin-LAMP1. Nature of the data set: Live cell TIRFm of lytic granule motility and persistence in activated pHluorin-LAMP1 NK92 cells. The format is cell-based, human. The conditions noted are these: for pre-degranulation motility of granules: 10 μM LatA added after 10 minutes, vs DMSO control; for number / accumulation of granules at the TIRF plane of the activated NK IS: LatA-treated cells, not quantified. The protocol:
For NK92 lytic granule motility studies, pHluorin-LAMP1 NK92 cells were suspended in dye free RPMI 10% FBS media at a concentration of 7.5×10^5 to 10^6 cells/ml and incubated with 100 nM LysoTracker® Red DND-99 (Invitrogen) at 37° C. for 30 minutes, washed, and resuspended in media. ΔT culture dishes (Bioptechs) were coated with […] anti-NKp30 and -CD18, incubated at 37° C. for 1 hour or 4 degrees overnight, washed with PBS, and pre-warmed with dye free RPMI 10% FBS media. NK92 cells were plated on ΔT culture dishes immediately prior to imaging, and temperature was maintained at 37° C. throughout the experiment using a ΔT culture dish heater and lid (Bioptechs).
Cells were imaged in a single z-plane 10-15 minutes after addition to imaging chambers through an APO N TIRFm, oil immersion 60×1.49 NA objective using an Olympus IX-81 spinning disk confocal microscope with a rear-mounted TIRF illuminator and a Hamamatsu EM CCD C9100 camera. Excitation was by 480 nm (Spectra-Physics) and 561 nm (Cobalt) diode lasers through a LMM5 laser combiner unit (Spectral Applied Research). Cell image sequences were captured in TIRF mode at the interface between the cell and the glass over 60-80 minutes at 6 frames per minute using Volocity® software (PerkinElmer). Where indicated, cells were incubated with 10 μM LatA (Sigma) following 10 minutes of pre-incubation in the imaging chamber.
For TIRFm analysis, image sequences were analyzed using Volocity® software (PerkinElmer). LysoTracker® Red and pHluorin positive events were identified and cropped in Volocity®. Object tracks were generated over time using the “track objects manually” function and the rectangular selection tool for each event; the track length, track velocity, displacement, and displacement rate of each lytic granule were measured for both LysoTracker® Red time points and pHluorin time points, and comparatively graphed on GraphPad Prism® Version 5.0 (GraphPad software). Overlays of lytic granule tracks were generated by the plotting of X and Y coordinate values from Volocity with GraphPad Prism® for both Lysotracker® Red and pHluorin. To measure the time persistence of LysoTracker® Red lytic granules within the TIRF field, the time of LysoTracker® Red emergence on the TIRF field was subtracted from the time of pHlourin appearance or LysoTracker® Red disappearance and multiplied by 60 to obtain time persistence in seconds.
For LatA experiments, granules with both Lysotracker Red and pHluorin traces were identified and cropped in Volocity®. Objects were identified using a threshold of 3 SD above the mean field fluorescence for each timepoint to account for photobleaching using the “Find Objects Using SD Intensity” function. Objects smaller than 0.032 μm^2 were excluded from further analysis. Tracks were then generated using the “Track Objects” feature using the “Shortest Path” tracking model, and the track length, track velocity, displacement, displacement rate, and time span of each lytic granule tabulated and graphed using GraphPad Prism® software Version 5.0.
The sum fluorescent intensity and area of each granule was also recorded at each timepoint. Using the initial appearance of pHluorin-LAMP1 as time zero, the average sum fluorescent intensity post-degranulation was calculated and graphed for lytic granules treated with DMSO vehicle control versus those treated with LatA. For area measurements, the borders of individual granules were defined as those above 3 SD.

A further data set relates to NK cell. The conditions noted are these: cited from earlier work.
Data set [3] relates to NK-92 cells expressing pHluorin-LAMP1. Nature of the data set: Flow cytometry of green fluorescence of NK-92 cells expressing pHluorin-LAMP1. The format is cell-based, human. The conditions noted are these: for pHluorin fluorescence: PMA 100 ng/mL and Ionomycin 1 μg/mL together for 30 minutes. The procedure:
Flow cytometry was performed to verify pHluorin-LAMP1 expression. Cells were untreated or treated with phorbol myristate acetate (PMA, 100 ng/mL,Sigma) and Ionomycin (1 μg/mL, Sigma) for 30 minutes or Concanamycin A (CMA, 100 nM, Sigma) for 90 minutes and samples were run on a Becton Dickinson FACSCalibur™.
(In general: In flow cytometry, cells or beads pass a laser one at a time.)

The subject of another data set is neutrophils. The conditions noted are these: cited from earlier work.
The subject of another data set is resting human NK cells. Conditions: cited from earlier work.
Another data set deals with NK-92 cells. Nature of the data set: Degranulation assay (Granzyme A activity, BLT esterase) of NK-92 cells activated by immobilized antibody to NKp30 and CD18. The format is cell-based, human. Conditions: thapsigargin 1 μM, positive control. The protocol:
Immulon 4HBX 96 well flat bottom plates (Thermo) were coated with murine IgG (BD), anti-human NKp30, anti-human CD18, or both anti-NKp30 and anti-CD18 at 5 μg/mL in PBS overnight at 4° C. Plates were washed twice with PBS and blocked for 1 hr at room temperature with R10 media. One×10^5 cells were added to wells and plates were spun at 1000 rpm for two minutes before incubation at 37° C. For the timecourse degranulation assay, supernatants from spontaneous and activated wells were harvested at indicated times. For inhibitor treatments, media containing inhibitor or vehicle (DMSO) was added at indicated times. Inhibitors used were jasplakinolide (1 μM, Calbiochem), latrunculin A (10 μM, Sigma), cytochalasin D (10 μM, Sigma), and thapsigargin (1 μM, Calbiochem). Supernatatants were harvested after 60 minutes. For total release, cells were lysed in 0.5% Nonidet P40 (Accurate Chemical and Scientific). […] Samples were incubated for 30 minutes at 37° C. and absorbance was measured immediately at 405 nm. Percent total release was measured by subtracting the spontaneous release value from activated release values (A-S) and the total release value (T-S), and then dividing (A-S) by (T-S).

Where [4] appears, read: 10 μM LatA, 12-18 tracks, normalized to DMSO control.

Entries after “also recorded” stand apart in the source; their conditions may differ.

For the compound `C/C1=C/C(=O)O[C@@H]2C[C@@H](CC[C@H](C)/C=C\C=C\CC1)O[C@@](O)([C@@H]1CSC(=O)N1)C2` [LatA, latrunculin A], the “expulsion of granule contents” value with PC12 chromaffin cells is on record as “more rapid expulsion of granule contents”. Also, the “depolymerization of cortical actin” value in data set [1] is reported as “rapidly depolymerizes; also recorded: completely depolymerizes cortical actin”. Moreover, in data set [2], the “pre-degranulation motility of granules” value is recorded as “intact; also recorded: did not significantly affect granule movement prior to degranulation” and the “number / accumulation of granules at the TIRF plane of the activated NK IS” value is on record as “no observable defect in the number of granules that reached the TIRF plane”. Besides, in data set [2] (listed as Latrunculin A), the “pre-degranulation motility of granules” value is reported as “did not affect pre-exocytosis movement” and the “number / accumulation of granules at the TIRF plane of the activated NK IS” value is on record as “gross accumulation of granules was not observed”. Besides, in data set [2] (setting [4]), the “lytic granule total displacement” value is recorded as “no significant differences”, the “lytic granule track length” value was “no significant differences” and the lytic granule velocity result was “no significant differences”. The “timespan of green fluorescence (persistence following exocytosis)” value in data set [2] (10 μM LatA, control normalized to 1.0±0.56, p=0.0441) is given as 0.59±0.442. In data set [2] (10 μM LatA, control normalized to 1.0±0.87), the “lifetime of red fluorescence (timespan pre-degranulation)” value turned out to be 1.1±0.61 AU. The “median time for 50% survival of granules following degranulation (Kaplan-Meier)” value in data set [2] (10 μM LatA, control treated cells 28.8 minutes) was found to be 13.7 min. Also, the “area of granules post-degranulation” value in data set [2] (LatA vs DMSO, over 40 minutes p<0.0001, truncated at 20 minutes p=0.4438) is given as “slightly greater area”. Besides, in data set [2] (LatA vs DMSO, up to forty minutes post-degranulation, p<0.0001 Mann Whitney U test), the “sum fluorescent intensity (MFI*area) of granules post-degranulation” value is listed as “significantly greater sum fluorescent intensity (MFI*area) of granules from DMSO treated cells”. Besides, the cytotoxic function result with NK cell is listed as “abrogates cytotoxic function”.

For `C/C=C/[C@H]1O[C@@](O)([C@@H](C)[C@H](O)[C@H](C)[C@H]2OC(=O)/C(OC)=C/C(C)=C/[C@@H](C)[C@@H](O)[C@@H](CC)[C@@H](O)[C@H](C)C/C(C)=C/C=C/[C@@H]2OC)C[C@@H](O[C@H]2C[C@@H](O)[C@H](OC(N)=O)[C@@H](C)O2)[C@@H]1C` [concanamycin A, Concanamycin A], the “green fluorescence measured by flow cytometry” value in data set [3] (Concanamycin A 100 nM for 90 minutes) was “robust increase in green fluorescence”.

As for `CCCCCCCCCCCCCC(=O)O[C@@H]1[C@@H](C)[C@@]2(O)[C@@H](C=C(CO)C[C@]3(O)C(=O)C(C)=C[C@@H]23)[C@@H]2C(C)(C)[C@]12OC(C)=O` [PMA, phorbol myristate acetate], the pHluorin fluorescence entry in data set [3] is recorded as “rapid increase in pHluorin fluorescence”.

Turning to `C=C1[C@@H](C)[C@H]2[C@H](Cc3ccccc3)NC(=O)[C@]23[C@H](OC(C)=O)/C=C/[C@@](C)(O)C(=O)[C@@H](C)C/C=C/[C@H]3[C@@H]1O` [cytochalasin D], in the data set with neutrophils, the “accumulation of granules at the exocytic zone” value is reported as “seems to promote the accumulation of granules” and the “movement of granules in the TIRF plane at the membrane” value is on record as “does not prevent movement of granules”.

Consider `COC(=O)Nc1nc2ccc(C(=O)c3cccs3)cc2[nH]1` [nocodazole], for which the “movement of granules at the plasma membrane / cortex” value in the data set with resting human NK cells was “arrests the movement of granules at the cortex”.

For `C/C1=C/C(=O)O[C@@H]2C[C@@H](CC[C@H](C)/C=C\CC1)O[C@@](O)([C@@H]1CSC(=O)N1)C2` [Latrunculin B], in the data set on resting human NK cells, the “movement of granules at the plasma membrane / cortex” value is “arrests those granules constitutively found at the plasma membrane” and the “numbers of granules at the plasma membrane” value is on record as “does not result in increased numbers of granules”.

With `C/C=C(/C)C(=O)O[C@H]1C(C)=C2[C@H]([C@@H]1OC(=O)CCCCCCC)[C@@](C)(OC(C)=O)C[C@H](OC(=O)CCC)[C@@]1(O)[C@H]2OC(=O)[C@@]1(C)O` [Thapsigargin, thapsigargin], the effect on degranulation entry in the data set on NK-92 cells is recorded as “positive effect on degranulation”.

On to `C[C@H](CCC(=O)O)C[C@H](C)C[C@H](C)C(=O)/C=C(\O)[C@H](C)C[C@H](C)C/C=C/[C@@H](C)[C@@H](O)[C@@H](C)[C@@H](O)C[C@@H]1CC[C@@](C)([C@H]2CC[C@@](C)([C@@H](C)O)O2)O1` [ionomycin, Ionomycin], for which the pHluorin fluorescence result in data set [3] is reported as “rapid increase in pHluorin fluorescence”.
